{"source": "patent US12559523B2", "about": "“Compositions comprising chemerin analogs and methods of use” (OKYO Pharma Limited, priority 2019, dated 2026)", "key": {"[1]": {"test_system": "conjunctival goblet cells (GC)", "assay": "Conjunctival goblet cell density measurement, dry eye", "assay_type": "in vivo, mouse", "conditions": "superior and inferior conjunctiva; FIG. 4 and 6", "description": "In FIGS. 4 and 6, conjunctival goblet cells (GC) measurement is performed as follows. Enucleated mouse eyes with intact conjunctiva were fixed in 10% formalin and embedded in paraffin. Six-micrometer sections were stained with periodic acid-Schiff reagent."}, "CD4+ T cells": {"test_system": "CD4+ T cells", "assay": "Immunohistochemistry count of CD4+ T cells in conjunctival epithelium, dry eye", "assay_type": "in vivo, mouse", "conditions": "FIG. 3 and 5", "description": "In FIGS. 3 and 5, immunohistochemistry is used to detect CD4+ T cells. Enucleated mouse eyes with intact conjunctiva were suspended in optimal cutting temperature (OCT) compound and flash frozen in liquid nitrogen. Immunohistochemistry was performed on six micrometer frozen sections to detect and count the number of cells in conjunctival epithelium that stained positively for CD4, a biotinylated secondary antibody and NovaRED peroxidase. Positively stained cells were counted in the conjunctiva using Nikon imaging software."}}, "note": "Non-standard residues stand in square brackets, D forms with d. Residues, ends and D or L forms follow the SMILES beside them. *: point of attachment. PEG8 = NCCOCCOCCOCCOCCOCCOCCOCCOCCC(=O)O; Palmitoyl = CCCCCCCCCCCCCCCC(=O)*; Tic = O=C(O)[C@@H]1Cc2ccccc2CN1; Nle = CCCC[C@H](N)C(=O)O; Nva = CCC[C@H](N)C(=O)O", "data": [{"smiles": "CCCCCCCCCCCCCCCC(=O)NCCOCCOCCOCCOCCOCCOCCOCCOCCC(=O)NCC(=O)NCC(=O)N[C@H](Cc1ccc(O)cc1)C(=O)N[C@@H](Cc1ccccc1)C(=O)N[C@@H](CC(C)C)C(=O)N1CCC[C@H]1C(=O)N[C@H](CO)C(=O)N[C@@H](CCC(N)=O)C(=O)N[C@@H](Cc1ccccc1)C(=O)N[C@H](C)C(=O)N1Cc2ccccc2C[C@H]1C(=O)N[C@@H](CO)C(=O)O", "note": "[OK-101, Gly-Gly-dTyr-Phe-Leu-Pro-dSer-Gln-Phe-dAla-Tic-Ser] ({Palmitoyl-PEG8}-GG[dY]FLP[dS]QF[dA][Tic]S-OH)", "values": [{"measurement": "dry eye induced loss of goblet cell density", "setting": "[1]", "result": "normalized"}, {"measurement": "dry eye induced CD4+ T-cells infiltration", "setting": "CD4+ T cells", "result": "significantly reduced"}]}, {"smiles": "CCCCCCCCCCCCCCCC(=O)NCCOCCOCCOCCOCCOCCOCCOCCOCCC(=O)N[C@@H](CCC)C(=O)NCC(=O)N[C@H](Cc1ccc(O)cc1)C(=O)N[C@@H](Cc1ccccc1)C(=O)N[C@@H](CCCC)C(=O)N1CCC[C@H]1C(=O)N[C@H](CO)C(=O)N[C@@H](CCC(N)=O)C(=O)N[C@@H](Cc1ccccc1)C(=O)N[C@H](C)C(=O)N1Cc2ccccc2C[C@H]1C(=O)N[C@H](C)C(=O)O", "note": "[OK-113, NorV-Gly-dTyr-Phe-Nle-Pro-dSer-Gln-Phe-dAla-Tic-dAla] ({Palmitoyl-PEG8}-[Nva]G[dY]F[Nle]P[dS]QF[dA][Tic][dA]-OH)", "values": [{"measurement": "dry eye induced loss of goblet cell density", "setting": "[1]", "result": "normalized"}, {"measurement": "dry eye induced CD4+ T-cells infiltration", "setting": "CD4+ T cells", "result": "significantly reduced"}]}]}
